# From patent publication US11970479B2, “3-(1H-pyrazol-4-yl)pyridine allosteric modulators of the M4 muscarinic acetylcholine receptor” (Merck Sharp & Dohme LLC, priority 2018, dated 2024)
# Biological target: T1, human M4 muscarinic acetylcholine receptor (Homo sapiens, UniProt P08173)
# T1 construct: expressed in transfected cells
# T1 sequence (P08173 1-479): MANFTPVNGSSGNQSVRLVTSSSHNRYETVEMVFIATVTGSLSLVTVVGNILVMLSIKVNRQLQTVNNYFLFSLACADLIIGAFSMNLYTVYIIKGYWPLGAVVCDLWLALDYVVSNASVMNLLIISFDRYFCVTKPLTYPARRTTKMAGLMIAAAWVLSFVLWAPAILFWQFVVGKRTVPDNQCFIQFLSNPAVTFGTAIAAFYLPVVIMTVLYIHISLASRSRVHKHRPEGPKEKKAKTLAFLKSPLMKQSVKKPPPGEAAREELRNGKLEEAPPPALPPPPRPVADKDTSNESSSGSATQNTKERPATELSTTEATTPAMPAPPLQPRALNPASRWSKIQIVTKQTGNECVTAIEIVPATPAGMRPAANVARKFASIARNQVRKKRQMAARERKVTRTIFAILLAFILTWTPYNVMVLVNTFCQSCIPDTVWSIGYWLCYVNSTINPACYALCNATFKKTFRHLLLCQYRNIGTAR
# Experiment: human FLIPR-based M4 PAM assay (CHO-K1 cells with human M4 receptor and Gαqi5, calcium dye fluorescence, EC20 acetylcholine)
# Format: cell-based
# Details: inflection point (IP) of the dose response curve, human M4 receptor/Gαqi5, acetylcholine at 20% of maximum response, read-out: M4PAM Hu IP
# Summary of the method: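 CHO-K1 cells stably expressing human M4 and chimeric Gαqi5 were dye-loaded ~1 h at 37° C. Test compound was added with fluorescence recorded 4 min, then acetylcholine at EC20 (sometimes a further EC70 addition) with reading 3.5 min. Value is the inflection point of a 4-parameter logistic fit.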
row,EC50 [nM],Structure (SMILES)
1,27,"CC(C)(Cn1cc(-c2ccc(C#N)nc2-c2ccc3cccnc3c2)cn1)C(F)F [Example 90, 5-[1-(3,3-difluoro-2,2-dimethylpropyl)-1H-pyrazol-4-yl]-6-quinolin-7-ylpyridine-2-carbonitrile]"
2,190,"CC(C)(CCn1cc(-c2ccc(C#N)nc2-c2ccc3cccnc3c2)cn1)C(F)(F)F [Example 91, 6-quinolin-7-yl-5-[1-(4,4,4-trifluoro-3,3-dimethylbutyl)-1H-pyrazol-4-yl]pyridine-2-carbonitrile]"
3,131,"N#Cc1ccc(-c2cnn(CC(F)(F)C(F)F)c2)c(-c2ccc3cccnc3c2)n1 [Example 92, 6-quinolin-7-yl-5-[1-(2,2,3,3-tetrahydropropyl)-1H-pyrazol-4-yl]pyridine-2-carbonitrile]"
4,24,"Cc1ccc(-c2cnn(CC3(C)CCC(F)(F)CC3)c2)c(-c2ccc3cccnc3c2)n1 [Example 93, 7-(3-{1-[(4,4-difluoro-1-methylcyclohexyl)methyl]-1H-pyrazol-4-yl}-6-methylpyridin-2-yl)quinoline]"
5,52,"CC1(Cn2cc(-c3cccnc3-c3ccc4cccnc4c3)cn2)CCCCC1 [Example 94, 7-(3-{1-[(1-methylcyclohexyl)methyl]-1H-pyrazol-4-yl}pyridin-2-yl)quinoline]"
6,158,"c1cnc(-c2ccc3cccnc3c2)c(-c2cnn(CCC3CCC3)c2)c1 [Example 95, 7-{3-[1-(2-cyclobutylethyl)-1H-pyrazol-4-yl]pyridin-2-yl}quinoline]"
7,239,"c1cnc(-c2ccc3cccnc3c2)c(-c2cnn(CCC3CC3)c2)c1 [Example 96, 7-{3-[1-(2-cyclopropylethyl)-1H-pyrazol-4-yl]pyridin-2-yl}quinoline]"
8,87,"CC1(Cn2cc(-c3ccc(C#N)nc3-c3ccc4cccnc4c3)cn2)CC1 [Example 97, 5-{1-[(1-methylcyclopropyl)methyl]-1H-pyrazol-4-yl}-6-quinolin-7-ylpyridine-2-carbonitrile]"
9,81,"COc1cc2ccc(-c3nc(C)ccc3-c3cnn(CC4CC4(C)C)c3)cc2nn1 (centres unmarked) [Example 100, 7-(3-{1-[(2,2-dimethylcyclopropyl)methyl]-1H-pyrazol-4-yl}-6-methylpyridin-2-yl)-3-methoxycinnoline]"
10,100,"Cc1ccc(-c2cnn(CC3CC3(C)C)c2)c(-c2ccc3cccnc3c2)n1 (centres unmarked) [Example 101, 7-(3-{1-[(2,2-dimethylcyclopropyl)methyl]-1H-pyrazol-4-yl}-6-methylpyridin-2-yl)quinoline]"
11,91,"COc1cc2ccc(-c3nc(C#N)ccc3-c3cnn(CC4CC4(C)C)c3)cc2nn1 (centres unmarked) [Example 102, 5-{1-[(2,2-dimethylcyclopropyl)methyl]-1H-pyrazol-4-yl}-6-(3-methoxycinnolin-7-yl)pyridine-2-carbonitrile]"
12,45,"CC1(C)CC1Cn1cc(-c2ccc(C#N)nc2-c2ccc3cccnc3c2)cn1 (centres unmarked) [Example 103, 5-{1-[(2,2-dimethylcyclopropyl)methyl]-1H-pyrazol-4-yl}-6-quinolin-7-ylpyridine-2-carbonitrile]"
13,154,"COc1cc2ccc(-c3nc(C#N)ccc3-c3cnn(CC4(CC#N)CC4)c3)cc2nn1 [Example 104, 5-(1-{[1-(cyanomethyl)cyclopropyl]methyl}-1H-pyrazol-4-yl)-6-(3-methoxycinnolin-7-yl)pyridine-2-carbonitrile]"
14,120,"N#CCC1(Cn2cc(-c3ccc(C#N)nc3-c3ccc4cccnc4c3)cn2)CC1 [Example 105, 5-(1-{[1-(cyanomethyl)cyclopropyl]methyl}-1H-pyrazol-4-yl)-6-quinolin-7-ylpyridine-2-carbonitrile]"
15,93,"c1cnc(-c2ccc3cccnc3c2)c(-c2cnn(CC3CCCCC3)c2)c1 [Example 106, 7-{3-[1-(cyclohexylmethyl)-1H-pyrazol-4-yl]pyridin-2-yl}quinoline]"
16,16,"COc1cc2ccc(-c3nc(C)ccc3-c3cnn(CC4CCCCC4)c3)cc2nn1 [Example 107, 7-{3-[1-(cyclohexylmethyl)-1H-pyrazol-4-yl]-6-methylpyridin-2-yl}-3-methoxycinnoline]"
17,142,"COc1cc2ccc(-c3nc(C)ccc3-c3cnn(C4CCC(F)(F)CC4)c3)cc2nn1 [Example 108, 7-{3-[1-(4,4-difluorocyclohexyl)-1H-pyrazol-4-yl]-6-methylpyridin-2-yl}-3-methoxycinnoline]"
18,48,"CC(C)(C)Cn1cc(-c2ccc(C(F)F)nc2-c2ccc3cccnc3c2)cn1 [Example 109, 7-{6-(difluoromethyl)-3-[1-(2,2-dimethylpropyl)-1H-pyrazol-4-yl]pyridin-2-yl}quinoline]"
19,129,"CC(C)Cn1cc(-c2ccc(C#N)nc2-c2ccc3cccnc3c2)cn1 [Example 110, 5-[1-(2-methylpropyl)-1H-pyrazol-4-yl]-6-quinolin-7-ylpyridine-2-carbonitrile]"
20,110,"N#Cc1ccc(-c2cnn(CC3(F)CC3)c2)c(-c2ccc3cccnc3c2)n1 [Example 111, 5-{1-[(1-fluorocyclopropyl)methyl]-1H-pyrazol-4-yl}-6-quinolin-7-ylpyridine-2-carbonitrile]"
21,138,"COc1cc2ccc(-c3nc(C#N)ccc3-c3cnn(CC(F)(F)C(F)(F)F)c3)cc2nn1 [Example 112, 6-(3-methoxycinnolin-7-yl)-5-[1-(2,2,3,3,3-pentafluoropropyl)-1H-pyrazol-4-yl]pyridine-2-carbonitrile]"
22,139,"CC(C)(CO)Cn1cc(-c2ccc(C#N)nc2-c2ccc3cccnc3c2)cn1 [Example 113, 5-[1-(3-hydroxy-2,2-dimethylpropyl)-1H-pyrazol-4-yl]-6-quinolin-7-ylpyridine-2-carbonitrile]"
23,191,"COc1cc2ccc(-c3nc(C)ccc3-c3cnn(CC(C)(C)F)c3)cc2nn1 [Example 114, 7-{3-[1-(2-fluoro-2-methylpropyl)-1H-pyrazol-4-yl]-6-methylpyridin-2-yl}-3-methoxycinnoline]"
24,190,"COc1cc2ccc(-c3nc(C(F)F)ccc3-c3cnn(CC(C)(C)F)c3)cc2nn1 [Example 115, 7-{6-(difluoromethyl)-3-[1-(2-fluoro-2-methylpropyl)-1H-pyrazol-4-yl]pyridin-2-yl}-3-methoxycinnoline]"
25,39,"N#Cc1ccc(-c2cnn(CC3(F)CCC3)c2)c(-c2ccc3cccnc3c2)n1 [Example 116, 5-{1-[(1-fluorocyclobutyl)methyl]-1H-pyrazol-4-yl}-6-quinolin-7-ylpyridine-2-carbonitrile]"
26,104,"CC(C)(O)C(F)(F)Cn1cc(-c2ccc(C#N)nc2-c2ccc3cccnc3c2)cn1 [Example 117, 5-[1-(2,2-difluoro-3-hydroxy-3-methylbutyl)-1H-pyrazol-4-yl]-6-quinolin-7-ylpyridine-2-carbonitrile]"
